Here are results for 13 molecules from PubChem BioAssay (NCI).

Among the test systems are A549 NSCLC; MALME-3M melanoma; HCT-116 colon; HL-60(TB) leukemia; MOLT-4 leukemia; HOP-62 NSCLC; K-562 leukemia; NCI-H226 lung; RXF 393 renal; SK-MEL-5 melanoma.
Common to all, as to assay: NCI anticancer screen, dose series, 48 h

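These data come from cells grown in 96-well plates and exposed to compound for 48 hours at five concentrations. TGI denotes the concentration required for complete inhibition of growth.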 A value given as a limit tells only on which side of the number the result lay.

As for `CC(=O)N1CN2C(=O)CCC2c2cc(C)ccc21` (stereo not given), the TGI with A549 NSCLC, in the assay with MALME-3M melanoma, with HCT-116 colon, with HL-60(TB) leukemia, in the assay on MOLT-4 leukemia and in the assay on HOP-62 NSCLC was over 100 µM throughout. In addition, the TGI with K-562 leukemia, in the assay with NCI-H226 lung, with RXF 393 renal and in the assay on SK-MEL-5 melanoma was over 100 µM each time.

For `Fc1cccc(C2ON=C(c3ccccc3)N2C23CC4CC(CC(C4)C2)C3)c1` (stereo not given), the TGI with A549 NSCLC, with MALME-3M melanoma, with HCT-116 colon, in the assay on HL-60(TB) leukemia, in the assay with MOLT-4 leukemia and in the assay on HOP-62 NSCLC was over 10 µM each time. Further, the TGI in the assay on K-562 leukemia, in the assay on NCI-H226 lung, in the assay on RXF 393 renal and in the assay with SK-MEL-5 melanoma was over 10 µM each time.

Turning to `CN(Cc1ccccc1)C(=S)S`, the TGI with A549 NSCLC was over 100 µM; in the assay on MALME-3M melanoma, over 100 µM; in the assay with HCT-116 colon it was 39.6 µM; in the assay on HL-60(TB) leukemia it was 59.1 µM; with MOLT-4 leukemia, 84.6 µM; with HOP-62 NSCLC, over 100 µM. Besides, the TGI with K-562 leukemia, in the assay on NCI-H226 lung, in the assay with RXF 393 renal and with SK-MEL-5 melanoma was over 100 µM each time.

As for `COc1cc2ccc(C(C)NCC#N)cc2cc1OC` (stereo not given), the TGI in the assay with A549 NSCLC, in the assay on MALME-3M melanoma, in the assay on HCT-116 colon, in the assay with HL-60(TB) leukemia, in the assay on MOLT-4 leukemia and in the assay on HOP-62 NSCLC was over 100 µM each time. Besides, the TGI in the assay on K-562 leukemia, with NCI-H226 lung, in the assay with RXF 393 renal and in the assay on SK-MEL-5 melanoma was over 100 µM throughout.

On to `COC1CCC(OS(C)(=O)=O)C(C)O1` (stereo not given), for which the TGI in the assay on A549 NSCLC, in the assay with MALME-3M melanoma, in the assay on HCT-116 colon, with HL-60(TB) leukemia, in the assay with MOLT-4 leukemia and with HOP-62 NSCLC was over 10 µM each time. For the same molecule, the TGI in the assay on K-562 leukemia, in the assay with NCI-H226 lung, with RXF 393 renal and in the assay with SK-MEL-5 melanoma was over 10 µM throughout.

For `O=c1ccc(=O)c2c1c1[nH]c3ccccc3c1c1c(=O)c3ccccc3c(=O)c21`, the TGI was over 10 µM in the assay with A549 NSCLC; over 10 µM in the assay on MALME-3M melanoma; over 10 µM in the assay on HCT-116 colon; 9.85 µM in the assay with HL-60(TB) leukemia; 7.55 µM in the assay with MOLT-4 leukemia; over 10 µM in the assay on HOP-62 NSCLC. For the same molecule, the TGI with K-562 leukemia, in the assay on NCI-H226 lung, in the assay with RXF 393 renal and in the assay with SK-MEL-5 melanoma was over 10 µM each time.

On to `C=C(CCC(=O)N(CCc1c[nH]c2ccccc12)C(=O)c1ccccc1CSCC)C(=O)OC`, for which the TGI with A549 NSCLC, in the assay on MALME-3M melanoma, with HCT-116 colon, in the assay on HL-60(TB) leukemia, with MOLT-4 leukemia and in the assay on HOP-62 NSCLC was over 100 µM throughout. Besides, the TGI with K-562 leukemia, in the assay with NCI-H226 lung, in the assay with RXF 393 renal and with SK-MEL-5 melanoma was over 100 µM each time.

Turning to `CCOC(=O)NC(Nc1ccc(C(=O)O)cc1)(C(F)(F)F)C(F)(F)F`, the TGI in the assay on A549 NSCLC, in the assay with MALME-3M melanoma, with HCT-116 colon, with HL-60(TB) leukemia, in the assay with MOLT-4 leukemia and with HOP-62 NSCLC was over 100 µM in each case. For the same molecule, the TGI in the assay with K-562 leukemia, with NCI-H226 lung, in the assay with RXF 393 renal and with SK-MEL-5 melanoma was over 100 µM throughout.

As for `COC(=O)c1sc2c(Cl)c(Cl)sc2c1Cl`, the TGI in the assay with A549 NSCLC, in the assay with MALME-3M melanoma, in the assay on HCT-116 colon, in the assay with HL-60(TB) leukemia, with MOLT-4 leukemia and with HOP-62 NSCLC was over 100 µM in each case. For the same molecule, the TGI in the assay on K-562 leukemia, in the assay with NCI-H226 lung, with RXF 393 renal and with SK-MEL-5 melanoma was over 100 µM throughout.

For the molecule `O=C(O)C1C2OC(C(Br)C2Br)C1C(=O)O` (stereo not given), the TGI in the assay on A549 NSCLC, with MALME-3M melanoma, in the assay with HCT-116 colon, with HL-60(TB) leukemia, in the assay on MOLT-4 leukemia and in the assay on HOP-62 NSCLC was over 100 µM each time. The TGI in the assay on K-562 leukemia, with NCI-H226 lung, in the assay on RXF 393 renal and with SK-MEL-5 melanoma was over 100 µM throughout.

On to `C[N+](C)([O-])C12CC3CC(CC(C3)C1)C2`, for which the TGI in the assay with A549 NSCLC is over 100 µM; in the assay with MALME-3M melanoma, over 100 µM; with HCT-116 colon it was 91.2 µM; with HL-60(TB) leukemia, over 100 µM; with MOLT-4 leukemia, over 100 µM; with HOP-62 NSCLC it was over 100 µM. The TGI in the assay with K-562 leukemia, in the assay on NCI-H226 lung, in the assay with RXF 393 renal and in the assay with SK-MEL-5 melanoma was over 100 µM in each case.

Regarding `CC[P+](c1ccccc1)(N(C)C)N(C)C`, the TGI in the assay on A549 NSCLC, in the assay on MALME-3M melanoma, with HCT-116 colon, with HL-60(TB) leukemia, in the assay on MOLT-4 leukemia and in the assay with HOP-62 NSCLC was over 100 µM each time. The TGI in the assay with K-562 leukemia, in the assay on NCI-H226 lung, with RXF 393 renal and in the assay on SK-MEL-5 melanoma was over 100 µM in each case.

Regarding `CC(=O)CCN1CC2CN=NC2(C#N)C1` (stereo not given), the TGI with A549 NSCLC is over 100 µM; in the assay with MALME-3M melanoma, over 100 µM; in the assay on HCT-116 colon, over 100 µM; with HL-60(TB) leukemia, over 62.6 µM; with MOLT-4 leukemia, over 56.7 µM; in the assay with HOP-62 NSCLC it was over 100 µM. The TGI in the assay on K-562 leukemia was over 48.2 µM; in the assay with NCI-H226 lung it was over 70 µM; with RXF 393 renal, over 100 µM; with SK-MEL-5 melanoma it was over 100 µM.
